The structures appear in SMILES notation. Where two headings read alike, the source gives them in different places.

One assay relates to Aedes aegypti. In words: Aedes aegypti (Yellow fever mosquito) larvae test. The format is in vivo. Conditions: 48 h.
For the next assay, the system named is Pyricularia oryzae. Put plainly: whole plant or invertebrate. It counts as in vivo. The conditions noted are these: foliar, 96 h.
For assay [1], the system named is Puccinia recondita f.sp. tritici. Put plainly: Puccinia recondita f.sp. tritici (wheat brown rust) leaf disk assay. It counts as in vivo. Conditions: foliar, 216 h, preventive, nine days after inoculation, read-out: control of fungal infection, Puccinia recondita f.sp. tritici.
The next assay deals with Plutella xylostella. In words: Plutella xylostella (Diamond back moth) artificial diet test. Conditions: 120 h, read-out: control of Plutella xylostella.
Assay [2] relates to Erysiphe graminis f.sp. tritici. Put plainly: Erysiphe graminis f.sp. tritici (wheat powdery mildew) leaf disk assay. It counts as in vivo. Conditions: Blumeria graminis, foliar, 96 h, preventive, four days after inoculation, read-out: control of fungal infection, Erysiphe graminis fsp. tritici.
The test system of the next assay is Phytophthora infestans. In words: whole plant or invertebrate. It counts as in vivo. The conditions noted are these: foliar, 96 h, read-out: control of fungal infection, Phytophthora infestans.
Setting [3] is: read-out: control of fungal infection, Pyricularia oryzae (at least 60% list).
The mark [4] stands for this setting: read-out: control of fungal infection, Pyricularia oryzae (at least 80% list).

In the case of `Fc1cccc(OC2C[C@H]3CC[C@@H](C2)N3c2ncnc3sccc23)c1F` (some centres unmarked) [Example 1.24], the pest or weed control at 2 ppm in the assay with Aedes aegypti was ≥ 80%. In addition, the pest or weed control at 200 ppm is ≥ 60% with Pyricularia oryzae (setting [3]), ≥ 80% in assay [1] and ≥ 80% in the assay on Plutella xylostella.
`CCc1ncnc(N2[C@@H]3CC[C@H]2CC(Oc2cccc(F)c2F)C3)c1Cl` (some centres unmarked) [Example 1.164]: in the assay with Aedes aegypti, the pest or weed control at 2 ppm was ≥ 80%. The pest or weed control at 200 ppm (in assay [1]; in assay [2]; in the assay on Plutella xylostella) was ≥ 80% in each case.
In the case of `CCc1ncnc(N2[C@@H]3CC[C@H]2CC(Oc2ccc(OC)cc2C(C)=O)C3)c1Cl` (some centres unmarked) [Example 1.211], in the assay on Phytophthora infestans, the pest or weed control at 200 ppm is ≥ 80%.
For the molecule `CC(C)c1ccc(OC2C[C@H]3CC[C@@H](C2)N3c2ncnc3sccc23)cc1` (some centres unmarked) [Example 2.17], the pest or weed control at 200 ppm (in assay [2]; in the assay with Plutella xylostella) was ≥ 80% each time.
Turning to `c1ccc2c(c1)[nH]c1cc(OC3C[C@H]4CC[C@@H](C3)N4c3ncnc4sccc34)ccc12` (some centres unmarked) [Example 2.19], the pest or weed control at 200 ppm (in assay [2]; in the assay on Phytophthora infestans) was ≥ 80% in each case.
`Cc1ccc(OC2C[C@H]3CC[C@@H](C2)N3c2ncnc3sccc23)cn1` (some centres unmarked) [Example 2.44]: the pest or weed control at 200 ppm (in assay [2]; in the assay on Phytophthora infestans) was ≥ 80% throughout.
With `Cc1nsc(Oc2cccc(OC3C[C@H]4CC[C@@H](C3)N4c3ncnc4scc(C)c34)c2)n1` (some centres unmarked) [Example 2.73], the pest or weed control at 200 ppm (in assay [2]; with Phytophthora infestans) was ≥ 80% in each case.
As for `CCc1ncnc(N2[C@@H]3CC[C@H]2CC(Oc2ccc(C(C)C)cc2)C3)c1Cl` (some centres unmarked) [Example 2.143], in the assay with Plutella xylostella, the pest or weed control at 200 ppm was ≥ 80%.
Still for that read-out and setting: as for `CCc1ncnc(N2[C@@H]3CC[C@H]2CC(Oc2ccc(C(C)(C)C)cc2)C3)c1Cl` (some centres unmarked) [Example 2.147], the figure is ≥ 80%.
As to `C#CCOc1ccc(C(C)(C)c2ccc(OC3C[C@H]4CC[C@@H](C3)N4c3ncnc4sccc34)cc2)cc1` (some centres unmarked) [Example 2.225], the pest or weed control at 200 ppm in the assay on Plutella xylostella was ≥ 80%.
As for `CCc1ncnc(N2C3CCC2CC(=CC(=O)N(C)C)C3)c1Cl` [Example 3.3], in the assay on Phytophthora infestans, the pest or weed control at 200 ppm was ≥ 80%.
For the molecule `CN(C)C(=O)C=C1CC2CCC(C1)N2c1ncnc2sccc12` [Example 3.25], the pest or weed control at 200 ppm with Phytophthora infestans was ≥ 80%.
On the same count and under the same terms, for `CCc1ncnc(N2[C@@H]3CC[C@H]2CC(NCc2ccc(Cl)cc2)C3)c1Cl` (some centres unmarked) [Example 4.12] the value was ≥ 80%; for `CCc1ncnc(N2C3CCC2CC(=NOc2ncccn2)C3)c1Cl` [Example 5.2], ≥ 80%.
In the case of `CCc1ncnc(N2C3CCC2CC(=NOCc2ccc4ccccc4c2)C3)c1Cl` [Example 5.8], the pest or weed control at 200 ppm (in assay [1]; in assay [2]; in the assay with Plutella xylostella) was ≥ 80% in each case.
Regarding `CCc1ncnc(N2C3CCC2CC(=NOCc2cccc(C)c2)C3)c1Cl` [Example 5.12], the pest or weed control at 2 ppm in the assay with Aedes aegypti is ≥ 80%. Besides, the pest or weed control at 200 ppm (in assay [1]; in assay [2]; in the assay on Plutella xylostella) was ≥ 80% throughout.
In the case of `CCc1ncnc(N2C3CCC2CC(=NOCC(=O)OC(C)(C)C)C3)c1Cl` [Example 5.24], the pest or weed control at 200 ppm (in assay [2]; with Phytophthora infestans) was ≥ 80% throughout.
Turning to `CCc1ncnc(N2C3CCC2CC(=NOCc2ccc(C)c(C)c2)C3)c1Cl` [Example 5.27], the pest or weed control at 200 ppm (in assay [1]; in assay [2]; with Plutella xylostella) was ≥ 80% throughout.
For `CCc1ncnc(N2C3CCC2CC(=NOCc2ccccc2Cl)C3)c1Cl` [Example 5.28], the pest or weed control at 2 ppm in the assay with Aedes aegypti is ≥ 80%. The pest or weed control at 200 ppm (in assay [1]; in assay [2]; in the assay with Plutella xylostella) was ≥ 80% in each case.
`CCc1ncnc(N2C3CCC2CC(=NOCc2ccccc2Br)C3)c1Cl` [Example 5.31]: the pest or weed control at 200 ppm (in assay [1]; in assay [2]; in the assay with Plutella xylostella) was ≥ 80% throughout.
For the molecule `CCc1ncnc(N2C3CCC2CC(=NOCc2c(C)cc(C)cc2C)C3)c1Cl` [Example 5.33], the pest or weed control at 200 ppm (in assay [2]; in the assay on Plutella xylostella) was ≥ 80% each time.
On to `CCc1ncnc(N2C3CCC2CC(=NOCc2c(Cl)cccc2Cl)C3)c1Cl` [Example 5.34], for which the pest or weed control at 200 ppm (in assay [2]; in the assay on Plutella xylostella) was ≥ 80% in each case.
In the case of `CCc1ncnc(N2C3CCC2CC(=NOCc2ccc(C)cc2C)C3)c1Cl` [Example 5.36], the pest or weed control at 2 ppm in the assay on Aedes aegypti is ≥ 80%. For the same molecule, the pest or weed control at 200 ppm (in assay [1]; in assay [2]; in the assay with Plutella xylostella) was ≥ 80% each time.
As for `CCc1ncnc(N2C3CCC2CC(=NOCc2cccc(C#N)c2)C3)c1Cl` [Example 5.44], the pest or weed control at 2 ppm with Aedes aegypti is ≥ 80%. In addition, the pest or weed control at 200 ppm (in assay [1]; in assay [2]; in the assay on Plutella xylostella) was ≥ 80% in each case.
Regarding `CCc1ncnc(N2C3CCC2CC(=NOCc2ccc(Cl)cc2Cl)C3)c1Cl` [Example 5.50], the pest or weed control at 200 ppm with Plutella xylostella was ≥ 80%.
For the molecule `CCc1ncnc(N2C3CCC2CC(=NOCc2c(F)cccc2F)C3)c1Cl` [Example 5.61], the pest or weed control at 2 ppm in the assay on Aedes aegypti is ≥ 80%. For the same molecule, the pest or weed control at 200 ppm was ≥ 60% in the assay on Pyricularia oryzae (setting [3]), ≥ 80% in assay [1], ≥ 80% in assay [2] and ≥ 80% in the assay with Plutella xylostella.
In the case of `CCc1ncnc(N2C3CCC2CC(=NOCc2ccccc2OC(F)F)C3)c1Cl` [Example 5.68], the pest or weed control at 2 ppm in the assay with Aedes aegypti is ≥ 80%. For the same molecule, the pest or weed control at 200 ppm (in assay [1]; in assay [2]; in the assay with Plutella xylostella) was ≥ 80% throughout.
On to `CCc1ncnc(N2C3CCC2CC(=NOCc2ccccc2C(F)(F)F)C3)c1Cl` [Example 5.70], for which the pest or weed control at 2 ppm in the assay on Aedes aegypti was ≥ 80%. The pest or weed control at 200 ppm (in assay [1]; in assay [2]; in the assay on Plutella xylostella) was ≥ 80% each time.
For the molecule `CCc1ncnc(N2C3CCC2CC(=NOCc2cccc(C)c2F)C3)c1Cl` [Example 5.74], the pest or weed control at 200 ppm (in assay [1]; in assay [2]; in the assay with Plutella xylostella) was ≥ 80% throughout.
Regarding `CCc1ncnc(N2C3CCC2CC(=NOCc2cccc(Cl)c2F)C3)c1Cl` [Example 5.79], the pest or weed control at 200 ppm (in assay [1]; in assay [2]; with Plutella xylostella) was ≥ 80% throughout.
With `CCc1ncnc(N2C3CCC2CC(=NOCc2ccc(OC)c(Cl)c2Cl)C3)c1Cl` [Example 5.88], in the assay with Aedes aegypti, the pest or weed control at 2 ppm is ≥ 80%. In addition, the pest or weed control at 200 ppm (with Pyricularia oryzae (setting [4]); in assay [1]; in assay [2]; with Plutella xylostella) was ≥ 80% in each case.
Consider `Clc1cccc(Cl)c1CON=C1CC2CCC(C1)N2c1ncnc2sccc12` [Example 5.144], for which the pest or weed control at 2 ppm in the assay on Aedes aegypti was ≥ 80%. The pest or weed control at 200 ppm (with Pyricularia oryzae (setting [4]); in assay [1]; in assay [2]) was ≥ 80% each time.
Consider `COc1cccc(CON=C2CC3CCC(C2)N3c2ncnc3sccc23)c1` [Example 5.164], for which the pest or weed control at 2 ppm with Aedes aegypti was ≥ 80%. In addition, the pest or weed control at 200 ppm (in assay [1]; in assay [2]; with Plutella xylostella) was ≥ 80% in each case.
Turning to `c1ccc(-c2ccccc2CON=C2CC3CCC(C2)N3c2ncnc3sccc23)cc1` [Example 5.177], in the assay with Phytophthora infestans, the pest or weed control at 200 ppm is ≥ 80%.
On to `FC(F)(F)c1cccc(CON=C2CC3CCC(C2)N3c2ncnc3sccc23)c1` [Example 5.187], for which the pest or weed control at 2 ppm with Aedes aegypti was ≥ 80%. Also, the pest or weed control at 200 ppm in the assay on Pyricularia oryzae (setting [3]) is ≥ 60%; in assay [1], ≥ 80%; in assay [2], ≥ 80%; with Plutella xylostella, ≥ 80%.
Consider `FC(F)(F)c1ccccc1CON=C1CC2CCC(C1)N2c1ncnc2sccc12` [Example 5.188], for which, in the assay on Aedes aegypti, the pest or weed control at 2 ppm was ≥ 80%. Also, the pest or weed control at 200 ppm in the assay with Pyricularia oryzae (setting [3]) is ≥ 60%; in assay [1], ≥ 80%; in assay [2], ≥ 80%; in the assay with Plutella xylostella it was ≥ 80%.
Take `FC(F)Oc1ccccc1CON=C1CC2CCC(C1)N2c1ncnc2sccc12` [Example 5.202]: in the assay on Aedes aegypti, the pest or weed control at 2 ppm is ≥ 80%. The pest or weed control at 200 ppm in the assay on Pyricularia oryzae (setting [3]) is ≥ 60%; in assay [1], ≥ 80%; in assay [2], ≥ 80%.
Take `FC(F)Oc1cccc(CON=C2CC3CCC(C2)N3c2ncnc3sccc23)c1` [Example 5.204]: in the assay with Aedes aegypti, the pest or weed control at 2 ppm was ≥ 80%. Moreover, the pest or weed control at 200 ppm in the assay with Pyricularia oryzae (setting [3]) is ≥ 60%; in assay [1], ≥ 80%; in assay [2] it was ≥ 80%; in the assay with Plutella xylostella, ≥ 80%.
For the molecule `Fc1cccc(Cl)c1CON=C1CC2CCC(C1)N2c1ncnc2sccc12` [Example 5.213], the pest or weed control at 2 ppm in the assay with Aedes aegypti was ≥ 80%. Besides, the pest or weed control at 200 ppm (in assay [1]; in assay [2]; in the assay with Plutella xylostella) was ≥ 80% throughout.
As for `Cc1cccc(CON=C2CC3CCC(C2)N3c2ncnc3sccc23)c1F` [Example 5.223], in the assay on Aedes aegypti, the pest or weed control at 2 ppm was ≥ 80%. For the same molecule, the pest or weed control at 200 ppm (in assay [1]; in assay [2]; in the assay with Plutella xylostella) was ≥ 80% in each case.

The values above are taken from patent publication US20100331348A1, “TROPANE DERIVATIVES USEFUL AS PESTICIDES” (SYNGENTA CROP PROTECTION, INC., priority 2007, published 2010).
